# Reference: ChEMBL document CHEMBL1821589, “Synthesis and structure-activity relationship of 1- and 2-substituted-1,2,3-triazole letrozole-based analogues as aromatase inhibitors” (Eur J Med Chem, 2011)
# pIC50: −log10 of the molar value. The source made the active and inactive calls. The rule behind the calls is not given here.
# Target: T1, Aromatase (Homo sapiens, UniProt P11511)
# T1 sequence (P11511 whole entry): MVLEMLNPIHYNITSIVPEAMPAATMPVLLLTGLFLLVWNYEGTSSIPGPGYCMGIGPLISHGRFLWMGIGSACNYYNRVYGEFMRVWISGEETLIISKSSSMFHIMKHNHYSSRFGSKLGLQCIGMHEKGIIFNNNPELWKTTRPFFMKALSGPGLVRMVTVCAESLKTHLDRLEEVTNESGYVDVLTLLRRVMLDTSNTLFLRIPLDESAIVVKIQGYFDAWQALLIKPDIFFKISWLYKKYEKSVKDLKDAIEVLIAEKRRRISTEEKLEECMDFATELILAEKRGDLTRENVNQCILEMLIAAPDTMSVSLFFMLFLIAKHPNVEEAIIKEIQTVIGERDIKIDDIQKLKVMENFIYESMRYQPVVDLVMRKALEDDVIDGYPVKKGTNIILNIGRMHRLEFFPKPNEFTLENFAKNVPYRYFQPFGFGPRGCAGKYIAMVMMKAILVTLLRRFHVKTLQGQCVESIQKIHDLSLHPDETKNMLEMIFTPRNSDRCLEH
# Test: Inhibition of aromatase using 7-methoxy-4-trifluoromethyl coumarin as substrate after 30 mins by fluorescence-based colorimetric analysis
# Conditions: not given
row,SMILES,pIC50
1,Cc1ccc(OCc2cn(Cc3ccc(C#N)cc3)nn2)cc1,5.38
2,CCCCCCCCCCc1cn(C(c2ccc(C#N)cc2)c2ccc(C#N)cc2)nn1,4.80
3,CCCCCCc1cn(C(c2ccccc2)c2ccccc2)nn1,4.83
4,CCCCCCCCCCc1cn(Cc2ccccc2)nn1,5.19
5,N#Cc1ccc(Cn2ccnn2)cc1,7.00
6,COc1ccc(OCc2cn(Cc3ccc(C#N)cc3)nn2)cc1,5.63
7,N#Cc1ccc(C(c2ccc(C#N)cc2)n2cc(-c3ccccc3)nn2)cc1,4.99
8,Cc1ccc(OCc2cn(Cc3ccccc3)nn2)cc1,5.64
9,COc1ccc(OCc2cn(Cc3ccccc3)nn2)cc1,4.76
10,CCCCCCc1cn(Cc2ccc(C#N)cc2)nn1,5.28
11,c1ccc(Cn2ccnn2)cc1,4.93
12,c1ccc(-c2ccc(OCc3cn(C(c4ccccc4)c4ccccc4)nn3)cc2)cc1,4.81
13,COc1ccc(OCc2cn(C(c3ccc(C#N)cc3)c3ccc(C#N)cc3)nn2)cc1,4.92
14,c1ccc(C(c2ccccc2)n2cncn2)cc1,5.96
15,CCCCCCCc1cn(C(c2ccc(C#N)cc2)c2ccc(C#N)cc2)nn1,4.97
16,COc1ccc(OCc2cn(C(c3ccccc3)c3ccccc3)nn2)cc1,4.82
17,CCCCCCc1cn(C(c2ccc(C#N)cc2)c2ccc(C#N)cc2)nn1,5.29
18,N#Cc1ccc(OCc2cn(C(c3ccccc3)c3ccccc3)nn2)cc1,4.78
19,c1ccc(Cn2nccn2)cc1,4.79
20,c1ccc(Cn2ccnc2)cc1 [BENZYLIMIDAZOLE],6.82
21,CCCCCCCCCCc1cn(C(c2ccccc2)c2ccccc2)nn1,4.87

row,SMILES,pIC50
1,CCCc1cn(C(c2ccccc2)c2ccccc2)nn1,4.96
2,N#Cc1ccc(C(c2ccc(C#N)cc2)n2nccn2)cc1,4.10
3,c1ccc(Cn2cncn2)cc1,5.39
4,Cc1ccc(OCc2cn(C(c3ccc(C#N)cc3)c3ccc(C#N)cc3)nn2)cc1,4.96
5,CCCc1cn(Cc2ccc(C#N)cc2)nn1,5.36
6,N#Cc1ccc(Cn2cc(COc3ccc(-c4ccccc4)cc3)nn2)cc1,4.94
7,N#Cc1ccc(C(c2ccc(C#N)cc2)n2cc(COc3ccc(-c4ccccc4)cc3)nn2)cc1,4.87
8,N#Cc1ccc(C(c2ccc(C#N)cc2)n2cc(COc3ccccc3)nn2)cc1,4.96
9,N#Cc1ccc(Cn2cc(-c3ccccc3)nn2)cc1,5.47
10,c1ccc(Cn2cc(COc3ccc(-c4ccccc4)cc3)nn2)cc1,4.97
11,CCCCCCCc1cn(Cc2ccccc2)nn1,5.02
12,CCCc1cn(C(c2ccc(C#N)cc2)c2ccc(C#N)cc2)nn1,5.33
13,O=[N+]([O-])c1ccc(OCc2cn(Cc3ccccc3)nn2)cc1,5.56
14,N#Cc1ccc(C(c2ccc(C#N)cc2)n2cc(COc3ccc([N+](=O)[O-])cc3)nn2)cc1,5.11
15,N#Cc1ccc(Cn2cc(COc3ccc(Cl)cc3)nn2)cc1,5.41
16,N#Cc1ccc(Cn2cc(COc3ccc(C#N)cc3)nn2)cc1,5.04
17,CCCCCCCc1cn(C(c2ccccc2)c2ccccc2)nn1,4.71
18,CCCCCCCc1cn(Cc2ccc(C#N)cc2)nn1,5.51
19,N#Cc1ccc(Cn2cncn2)cc1,6.82
20,N#Cc1ccc(OCc2cn(Cc3ccccc3)nn2)cc1,5.87
21,N#Cc1ccc(Cn2cc(COc3ccc([N+](=O)[O-])cc3)nn2)cc1,5.25

row,SMILES,pIC50
1,N#Cc1ccc(C(c2ccc(C#N)cc2)n2cc(COc3ccc(Cl)cc3)nn2)cc1,4.79
2,c1ccc(Cn2cc(C3CCCCC3)nn2)cc1,5.10
3,c1ccc(C(c2ccccc2)n2cc(C3CCCCC3)nn2)cc1,4.86
4,N#Cc1ccc(C(c2ccc(C#N)cc2)n2cc(C3CCCCC3)nn2)cc1,4.71
5,CCCCCCCCCCc1cn(Cc2ccc(C#N)cc2)nn1,5.10
6,N#Cc1ccc(Cn2cc(C3CCCCC3)nn2)cc1,4.97
7,c1ccc(Cn2cc(-c3ccccc3)nn2)cc1,5.01
8,O=[N+]([O-])c1ccc(OCc2cn(C(c3ccccc3)c3ccccc3)nn2)cc1,4.94
9,c1ccc(OCc2cn(C(c3ccccc3)c3ccccc3)nn2)cc1,4.51
10,CCCCCCc1cn(Cc2ccccc2)nn1,5.13
11,c1ccc(Cn2cc(COc3ccccc3)nn2)cc1,4.97
12,c1ccc(C(c2ccccc2)n2nccn2)cc1,4.92
13,Clc1ccc(OCc2cn(Cc3ccccc3)nn2)cc1,5.30
14,CCCc1cn(Cc2ccccc2)nn1,4.90
15,c1ccc(-c2cn(C(c3ccccc3)c3ccccc3)nn2)cc1,4.89
16,Clc1ccc(OCc2cn(C(c3ccccc3)c3ccccc3)nn2)cc1,4.87
17,N#Cc1ccc(Cn2nccn2)cc1,4.91
18,N#Cc1ccc(Cn2cc(COc3ccccc3)nn2)cc1,5.22
19,N#Cc1ccc(OCc2cn(C(c3ccc(C#N)cc3)c3ccc(C#N)cc3)nn2)cc1,5.33
20,c1ccc(C(c2ccccc2)n2ccnn2)cc1,5.34
21,Cc1ccc(OCc2cn(C(c3ccccc3)c3ccccc3)nn2)cc1,4.57

# Target: T1, Aromatase
# Test: Ratio of letrozole IC50 to compound IC50 for aromatase
# Conditions: not given
row,SMILES,Ratio IC50
1,N#Cc1ccc(Cn2ccnn2)cc1,12.5

# Tested on: NCI-H295R
# Test: Antiproliferative activity against human NCI-H295R cells at 10 nM after 72 hrs by Cell titer blue assay
# Format: functional
# Conditions: not given
row,SMILES,growth inhibition (GI)
1,N#Cc1ccc(OCc2cn(Cc3ccccc3)nn2)cc1,inactive

# Same assay, conditions: read-out: GI
row,SMILES,inhibition of growth at 0.01 µM [%]
1,N#Cc1ccc(OCc2cn(C(c3ccc(C#N)cc3)c3ccc(C#N)cc3)nn2)cc1,99

# Tested on: NCI-H295R
# Test: Antiproliferative activity against human NCI-H295R cells assessed as cell viability at 10 nM after 24 to 72 hrs by Cell titer blue assay
# Format: functional
# Conditions: read-out: GI
row,SMILES,inhibition of growth at 0.01 µM [%]
1,N#Cc1ccc(C(c2ccc(C#N)cc2)n2ccnc2)cc1,40

# Tested on: NCI-H295R
# Test: Antiproliferative activity against human NCI-H295R cells at 10 nM after 24 hrs by Cell titer blue assay
# Format: functional
# Conditions: not given
row,SMILES,growth inhibition (GI)
1,N#Cc1ccc(OCc2cn(Cc3ccccc3)nn2)cc1,inactive

# Same assay, conditions: read-out: GI
row,SMILES,inhibition of growth at 0.01 µM [%]
1,N#Cc1ccc(OCc2cn(C(c3ccc(C#N)cc3)c3ccc(C#N)cc3)nn2)cc1,76

# Tested on: NCI-H295R
# Test: Antiproliferative activity against human NCI-H295R cells assessed as [3H]thymidine incorporation at 10 nM after 24 hrs by scintillation counting
# Format: functional
# Conditions: read-out: GI
row,SMILES,inhibition of growth at 0.01 µM [%]
1,N#Cc1ccc(C(c2ccc(C#N)cc2)n2cncn2)cc1 [LETROZOLE],10
